Patent US20200325177A1, “METHODS OF MAKING STREPTOGRAMIN COMPOSITIONS AND THE USE THEREOF” (THE REGENTS OF THE UNIVERSITY OF CALIFORNIA, priority 2017, published 2020)
In brackets after ≈: the same amount, converted by molar mass. Where two headings read alike, the source gives them in different places.

Experiments:
Format in all cases: cell-based
[1] = tested on: K. pneumoniae multidrug-resistant; assay: MIC, Gram-negative bacteria: K. pneumoniae multidrug-resistant; details: Klebsiella pneumoniae, read-out: Minimal Inhibitory Concentration (MIC) K. pneumoniae multidrug-resistant
[2] = tested on: S. aureus Vat A streptogramin; assay: MIC, Gram-positive bacteria: S. aureus Vat A streptogramin; details: Staphylococcus aureus; Gram-positive; column 5; read-out: Minimal Inhibitory Concentration (MIC) S. aureus Vat A streptogramin
[3] = tested on: Gram-Negative Organisms; assay: microbe, parasite or virus in culture
[4] = tested on: S. aureus; assay: MIC, Gram-positive bacteria: S. aureus (strains not named); details: Staphylococcus aureus, read-out: Minimal Inhibitory Concentration (MIC) S. aureus
[5] = tested on: E. faecalis; assay: MIC, Gram-positive bacteria: E. faecalis; details: Enterococcus faecalis, column 1, read-out: Minimal Inhibitory Concentration (MIC) E. faecalis
[6] = tested on: S. aureus Linezolid-resistant; cfr; assay: MIC, Gram-positive bacteria: S. aureus Linezolid-resistant; cfr; details: Staphylococcus aureus, column 9, read-out: Minimal Inhibitory Concentration (MIC) S. aureus Linezolid-resistant
[7] = tested on: P. aeruginosa MDR clinical isolate; assay: MIC, Gram-negative bacteria: P. aeruginosa MDR clinical isolate; details: Pseudomonas aeruginosa, read-out: Minimal Inhibitory Concentration (MIC) P. aeruginosa MDR clinical isolate
[8] = tested on: E. faecium ATCC 35667; assay: MIC, Gram-positive bacteria: E. faecium ATCC 35667; details: Enterococcus faecium, ATCC35667, column 2, read-out: Minimal Inhibitory Concentration (MIC) E. faecium ATCC 35667
[9] = tested on: S. pneumoniae; assay: MIC, Gram-positive bacteria: S. pneumoniae; details: Streptococcus pneumoniae, column 10, read-out: Minimal Inhibitory Concentration (MIC) S. pneumoniae
[10] = tested on: H. influenzae ATCC 49247; assay: MIC, Gram-negative bacteria: H. influenzae ATCC 49247; details: Haemophilus influenzae, ATCC49247, read-out: Minimal Inhibitory Concentration (MIC) H. influenzae ATCC 49247
[11] = tested on: P. aeruginosa ATCC 27853; assay: MIC, Gram-negative bacteria: P. aeruginosa ATCC 27853; details: Pseudomonas aeruginosa, ATCC27853, read-out: Minimal Inhibitory Concentration (MIC) P. aeruginosa ATCC 27853
[12] = tested on: E. faecium VRE; vanA; assay: MIC, Gram-positive bacteria: E. faecium VRE; vanA; details: Enterococcus faecium, column 3, read-out: Minimal Inhibitory Concentration (MIC) E. faecium VRE
[13] = Acinetobacter baumannii, ATCC19606, read-out: Minimal Inhibitory Concentration (MIC), A. baumannii ATCC 19606
[14] = Escherichia coli, ATCC25922, read-out: Minimal Inhibitory Concentration (MIC), E. coli ATCC 25922
[15] = Escherichia coli, read-out: Minimal Inhibitory Concentration (MIC), E. coli BAS2006, OMP C, OMP F
[16] = Escherichia coli, read-out: Minimal Inhibitory Concentration (MIC), E. coli olC efflux defective
[17] = Escherichia coli, read-out: Minimal Inhibitory Concentration (MIC), E. coli permeability mutant BAS1314, IMP4213ZAB::TN10
[18] = Klebsiella pneumoniae, ATCC43816, read-out: Minimal Inhibitory Concentration (MIC), K. pneumoniae ATCC 43816
[19] = first unnamed S. aureus column (c4)
[20] = fourth unnamed S. aureus column (c8)
[21] = second unnamed S. aureus column (c6)
[22] = third unnamed S. aureus column (c7)
[23] = Escherichia coli, read-out: Minimal Inhibitory Concentration (MIC), E. coli ΔompC768, KanR insert

| SMILES | MIC [1] | MIC [2] | MIC [3, 13] | MIC [3, 14] | MIC [3, 15] | MIC [3, 16] | MIC [3, 17] | MIC [3, 18] | MIC [4, 19] | MIC [4, 20] | MIC [4, 21] | MIC [4, 22] | MIC [5] | MIC [6] | MIC [7] | MIC [8] | MIC [9] | MIC [10] | MIC [11] | MIC [12] | also measured |
| --- | --- | --- | --- | --- | --- | --- | --- | --- | --- | --- | --- | --- | --- | --- | --- | --- | --- | --- | --- | --- | --- |
| CC1=C\[C@@H](O)CC(=O)Cc2nc(co2)C(=O)N2CCC[C@@H]2C(=O)O[C@H]([C@@H](C)COC(=O)Nc2ccn(C)n2)[C@H](C)/C=C/C(=O)NC\C=C\1 [SA0110113] | > 64 µg/mL | > 64 µg/mL | > 64 µg/mL | > 64 µg/mL | 64 µg/mL (≈ 96 µM) | 8 µg/mL (≈ 12 µM) | 16 µg/mL (≈ 24 µM) | > 64 µg/mL | > 64 µg/mL | > 64 µg/mL | > 64 µg/mL | > 64 µg/mL | > 64 µg/mL | > 64 µg/mL | > 64 µg/mL | 64 µg/mL (≈ 96 µM) | 8 µg/mL (≈ 12 µM) | 64 µg/mL (≈ 96 µM) | > 64 µg/mL | > 64 µg/mL | – |
| CC1=C\[C@@H](O)CC(=O)Cc2nc(co2)C(=O)N2CCC[C@@H]2C(=O)O[C@H]([C@@H](C)COC(=O)Nc2cc3ccccc3cn2)[C@H](C)/C=C/C(=O)NC\C=C\1 [SA0110118] | > 64 µg/mL | > 64 µg/mL | > 64 µg/mL | > 64 µg/mL | 8 µg/mL (≈ 11.2 µM) | 2 µg/mL (≈ 2.8 µM) | 2 µg/mL (≈ 2.8 µM) | > 64 µg/mL | 8 µg/mL (≈ 11.2 µM) | 8 µg/mL (≈ 11.2 µM) | 8 µg/mL (≈ 11.2 µM) | 16 µg/mL (≈ 22.4 µM) | > 64 µg/mL | > 64 µg/mL | > 64 µg/mL | 4 µg/mL (≈ 5.6 µM) | 2 µg/mL (≈ 2.8 µM) | > 64 µg/mL | > 64 µg/mL | 16 µg/mL (≈ 22.4 µM) | – |
| CC1=C\[C@@H](O)CC(=O)Cc2nc(co2)C(=O)N2CCC[C@@H]2C(=O)O[C@H]([C@H](C)CO)[C@H](C)/C=C/C(=O)NC\C=C\1 [SA0110170] | > 64 µg/mL | > 64 µg/mL | > 64 µg/mL | > 64 µg/mL | > 64 µg/mL | 32 µg/mL (≈ 58.9 µM) | 32 µg/mL (≈ 58.9 µM) | > 64 µg/mL | > 64 µg/mL | > 64 µg/mL | > 64 µg/mL | > 64 µg/mL | > 64 µg/mL | > 64 µg/mL | > 64 µg/mL | > 64 µg/mL | 64 µg/mL (≈ 118 µM) | 32 µg/mL (≈ 58.9 µM) | > 64 µg/mL | > 64 µg/mL | MIC [3, 23]: > 64 µg/mL |
| CC1=C\[C@@H](O)CC(=O)Cc2nc(co2)C(=O)N2CCC[C@@H]2C(=O)O[C@H]([C@H](C)CF)[C@H](C)/C=C/C(=O)NC\C=C\1 [SA0110273] | > 64 µg/mL | > 64 µg/mL | > 64 µg/mL | > 64 µg/mL | 16 µg/mL (≈ 29.3 µM) | 4 µg/mL (≈ 7.33 µM) | 8 µg/mL (≈ 14.7 µM) | > 64 µg/mL | 64 µg/mL (≈ 117 µM) | 32 µg/mL (≈ 58.7 µM) | 64 µg/mL (≈ 117 µM) | 64 µg/mL (≈ 117 µM) | > 64 µg/mL | > 64 µg/mL | > 64 µg/mL | 16 µg/mL (≈ 29.3 µM) | 16 µg/mL (≈ 29.3 µM) | 8 µg/mL (≈ 14.7 µM) | > 64 µg/mL | 64 µg/mL (≈ 117 µM) | MIC [3, 23]: > 64 µg/mL |
| CC1=C\[C@@H](O)CC(N)Cc2nc(cs2)C(=O)N2CCC[C@@H]2C(=O)O[C@H](C(C)C)[C@H](C)/C=C/C(=O)NC\C=C\1 (stereo partly shown) [SA0110268] | > 64 µg/mL | > 64 µg/mL | > 64 µg/mL | > 64 µg/mL | 16 µg/mL (≈ 29.4 µM) | 2 µg/mL (≈ 3.67 µM) | 2 µg/mL (≈ 3.67 µM) | > 64 µg/mL | > 64 µg/mL | > 64 µg/mL | > 64 µg/mL | > 64 µg/mL | > 64 µg/mL | > 64 µg/mL | > 64 µg/mL | 64 µg/mL (≈ 117 µM) | 32 µg/mL (≈ 58.7 µM) | 64 µg/mL (≈ 117 µM) | > 64 µg/mL | > 64 µg/mL | MIC [3, 23]: > 64 µg/mL |
